Assays:
Format in all cases: cell-based
N-SMase = experiment: Western blot of N-SMase protein after antisense knockdown in primary human neurons; conditions: 48 h with oligonucleotide
Method: Because these ASOs have become a very critical part of our study, the efficacy of N-SMase and A-SMase ASOs in inhibiting the protein expression of N-SMase and A-SMase was checked by western blot. […] Next, the effect of antisense knockdown of neuronal N-SMase and/or A-SMase on activated glia-induced neuronal apoptosis by TUNEL was investigated. […] As evidenced by a decrease In MTT metabolism, activated astroglia reduced neuronal viability (FIG. 2E).
Primary human neurons were incubated with antisense (ASO) and scrambled oligonucleotides (ScO) against N-SMase (A) and A-SMase (FIG. 2B). After 48 h, neurons were analyzed for protein expression of N-SMase and A-SMase. In FIG. 2C, primary human astrocytes seeded in inserts were stimulated by the combination of Aβ and IL-1β as described above. […] After 6 h of treatment with activated astrocytes, apoptotic events in neurons were detected by TUNEL. In FIG. 2D, TUNEL-positive cells were counted manually in four different images of each of three coverslips by three individuals blinded to the experiment. In FIG. 2E, after 18 h of stimulation, cell viability was examined by the metabolism of MTT and the release of LDH. […] Cell viability was checked by MTT (FIG. 2F) and LDH (FIG. 2G). Values obtained from the control group served as 100%, and data obtained in other groups were calculated as percent of control accordingly. […]

primary human neurons [1] = experiment: TUNEL apoptosis of neurons challenged by oligomeric Aβ-activated astrocytes, trans-well; conditions: neurons pretreated 40 h with 1 μM oligonucleotide; 6 h
Method: Fragmented DNA was detected in situ by the terminal deoxynucleotidyltransferase-mediated binding of 3′-OH ends of DNA fragments generated in response to fibrillar Aβ1-42, using a commercially available kit (TdT FragEL™) from Calbiochem. Briefly, cover slips were treated with 20 μg/ml proteinase K for 15 min at room temperature and washed prior to terminal deoxynucleotidyltransferase staining.
In FIG. 5A, primary astrocytes were stimulated with fibrillar Aβ1-42, oligomeric Aβ1-42 and reverse peptide Aβ42-1 for 24 h followed by double-labeling of GFAP and iNOS. In FIG. 5B, primary human astrocytes seeded in inserts were stimulated with a combination of I μM of oligomeric Aβ1-42 and 10 ng/ml of IL-Iβ in serum free media. […] After 6 h, neuronal apoptosis was monitored by TUNEL. In FIG. 5C, TUNEL-positive cells were counted manually in four different images of each of three coverslips by three individuals blinded to the experiment. Values obtained from the control group (1) served as 100%, and data obtained from other three groups i.e. the oligomeric Aβ-activated astrocytes (OAA) group (2), the ASO-OAA group (3), and the ScO-OAA group (4) was calculated as percent of control accordingly. Results are mean+S.D. of three different experiments. ^ap<0.001 vs control; ^bp<0.001 vs OAA.

primary human neurons [2] = experiment: LDH release from neurons in astrocyte-neuron trans-well; conditions: neurons pretreated with oligonucleotide; 18 h of stimulation
Method: Primary human astrocytes were grown to confluency on inserts. After 24 h of stimulation by the combination of Aβ (1 μM) and IL-Iβ (10 ng/ml), inserts were washed thrice with HBSS and then placed onto the wells containing primary human neurons. Therefore, in this trans-well model, although neurons and astrocytes face each other, they are separable and the effect of soluble factors released from activated astrocytes on neurons can be studied allowing analysis of neuronal and glial populations separately.
The activity of lactate dehydrogenase (LDH) was measured using the direct spectrophotometric assay using an assay kit from Sigma.
Primary human neurons were incubated with antisense (ASO) and scrambled oligonucleotides (ScO) against N-SMase (A) and A-SMase (FIG. 2B). After 48 h, neurons were analyzed for protein expression of N-SMase and A-SMase. In FIG. 2C, primary human astrocytes seeded in inserts were stimulated by the combination of Aβ and IL-1β as described above. […] After 6 h of treatment with activated astrocytes, apoptotic events in neurons were detected by TUNEL. In FIG. 2D, TUNEL-positive cells were counted manually in four different images of each of three coverslips by three individuals blinded to the experiment. In FIG. 2E, after 18 h of stimulation, cell viability was examined by the metabolism of MTT and the release of LDH. […] Values obtained from the control group served as 100%, and data obtained in other groups were calculated as percent of control accordingly. […]
In FIGS. 3A-3E, primary human astrocytes seeded in inserts were stimulated by the combination of Aβ and IL-Iβ as described above. […] In FIG. 3A, after 1 h, activity of N-SMase was measured in total cell extracts of neurons as described above. […] Values obtained from the control group served as 100%, and data obtained in other groups were calculated as percent of control accordingly. […] Primary human neurons were treated with 25 μM DETA-NONOate (a NO donor) and at different time points of treatment, activities of N-SMase (FIG. 3D) and A-SMase (FIG. 3E) were monitored. ^ap<0.001 vs control (0 h).

## 5′- CAGCGAGCCCGTCCACCAGCC -3′ (DNA, all phosphorothioate, methylation of C not given here) [ASO against N-SMase, ID; NO.: 12]
N-SMase
  level of N-SMase protein: effectively inhibited
Primary human neurons [1]
  oligomeric Aβ-activated astrocyte-induced apoptosis of human neurons (TUNEL): blocked
Primary human neurons [2]
  LDH release from neurons: significant reduction

Reference: patent US9006205B2, “Antisense oligonucleotides against neutral sphingomyelinase and neutral sphingomyelinase inhibitor GW4869 for degenerative neurological disorders” (Rush University Medical Center, priority 2011, dated 2015)
